The test system of assay [1] is neonatal rat cardiac myocytes overexpressing HCN4. As to the kind of experiment: If activation curve, perforated patch-clamp, in HCN4 overexpressing NRCMs with PDE4 inhibition. The class given is cell-based. To be noted: 100 nM rolipram. The procedure: (§1) Neonatal rat cardiac myocytes and CMPCs were transduced with LV-HCN4-GFP, TBX3-GFP and LV-GFP at a MOI of 0.1, HEK 293 cells were transfected with both HCN4 and GFP or EVY deleted HCN4 and GFP. Single electrophysiological cell experiments were performed 7-10 days and 2 months after transducing NRCMs and CMPCs, respectively, or after the HEK 293 transfection. Myocytes were trypsinized during 30 seconds to prepare them for patch-clamping. By this procedure, cardiac myocytes lost their cell-to-cell connections, became less flattened (which facilitated the use of glass micropipettes), but remained attached to the coverslip.
Action potentials, If and membrane currents were recorded at 36±0.2° using the perforated patch-clamp technique (Axopatch 200B Clamp amplifier, Axon Instruments Inc.). Signals were low-pass filtered (cut-off frequency: 5-kHz) and digitized at 5-kHz. Series resistance was compensated by ≧80%, and potentials were corrected for the estimated 15-mV change in liquid-junction potential. […]
If was characterized using custom voltage-clamp protocols modified from those published previously.^14,27 For current-voltage (I-V) relationships and activation properties, If was measured as Cs^+ sensitive (5 mM) current during 6-s hyperpolarizing steps (range −30 to −110 mV) from a holding potential of −30 mV. […]

Assay [2] relates to neonatal rat cardiac myocytes. As to the kind of experiment: Spontaneous activity of single control NRCMs with PDE4 inhibition. The class given is cell-based. As to conditions: 100 nM rolipram. The method, then:
as §1
Action potentials, If and membrane currents were recorded at 36±0.2° using the perforated patch-clamp technique (Axopatch 200B Clamp amplifier, Axon Instruments Inc.). Signals were low-pass filtered (cut-off frequency: 5-kHz) and digitized at 5-kHz. Series resistance was compensated by ≧80%, and potentials were corrected for the estimated 15-mV change in liquid-junction potential. For voltage control, data acquisition, and analysis, custom-made software was used. Superfusion solution contained (mM): 140 NaCl, 5.4 KCl, 1.8 CaCl2, 1.0 MgCl2, 5.5 glucose, 5 HEPES; pH 7.4 (NaOH). Pipettes (2-3 MΩ, borosilicate glass) were filled with solution containing (mM): 125 K-gluc, 20 KCl, 5 NaCl, 0.22 amphotericin-B, 10 HEPES; pH 7.2 (KOH).

For assay [3], the system named is LBB preparations. Briefly: Tissue bath studies of LBB preparations of injected animals. Details: species or system dog.

Read-outs that look alike come from different tables or passages of the source.

As for `COc1ccc(C2CNC(=O)C2)cc1OC1CCCC1` (stereo not shown) [rolipram], the “shift in the If activation curve” value in assay [1] is reported as “rightward shift in the If activation curve”. Moreover, in assay [2], the spontaneous activity entry is recorded as “remarkable increase in spontaneous activity”.

Regarding `CC(C)NCC(O)c1ccc(O)c(O)c1` (stereo not shown) [isoproterenol, Isoproterenol], the “spontaneous rate of HCN2/SkM1 preparation” value in assay [3] is reported as “robust spontaneous activity sensitive to isoproterenol”.

`COc1cc2c(cc1OC)CC(=O)N(CCCN(C)C[C@H]1Cc3cc(OC)c(OC)cc31)CC2` [Ivabradine]: the “spontaneous rate of HCN2/SkM1 preparation” value in assay [3] (isoproterenol enhanced rhythm, HCN2/SkM1 injected animals) is given as “reductions in rate”.

Source of the values: patent US20110077702A1, “Means and Methods for Influencing Electrical Activity of Cells” (Academisch Medisch Centrum Bij de Universiteit van Amsterdam, priority 2008, published 2011).
